{"source": "patent US20230321054A1", "about": "“COMPOSITIONS AND METHODS FOR CANCER AND TUMOR TREATMENT” (Washington University, priority 2022, published 2023)", "key": {"[1]": {"test_system": "alanine cycling in WT zebrafish", "test": "[U-13C] glucose isotope tracing in vemurafenib-treated WT zebrafish", "assay_type": "in vivo", "conditions": "100 mg/kg/day, 4 consecutive days, vs vehicle", "protocol": "For all isotope tracing experiments, zebrafish were fasted for 24 h to empty the digestive tract prior to labeling. To determine the [U-^13C] glucose concentration for isotopic steady-state labeling, concentrations between 5 - 20 mM were tested. […] Similarly, concentrations between 1 - 10 mM of [U-^13C] glutamine were tested for steady-state labeling. […] For ^15N-BCAA labeling experiments, 2 mM each [^15N] leucine, [^15N] isoleucine, and [^15N] valine were concurrently supplemented to facility water. For ^13C-BCAA labeling experiments, 4 mM each of [U-^13C] leucine, [U-^13C] isoleucine, and [U-^13C] valine were concurrently supplemented to facility water. During steady-state labeling experiments, zebrafish were allowed to swim freely in facility water containing the corresponding stable isotopes at the aforementioned concentrations, in addition to 2% penicillin/streptomycin (Life Technologies). For isotope tracing via intraperitoneal injection, zebrafish were injected using a previously described method. Briefly, anesthetized fish were quickly dried and weighed. Zebrafish were then placed into the trough of a wet precut sponge, with the abdomen facing up and gills secured in the trough. […] After injection, fish were placed in 28° C. facility water and monitored for recovery from anesthesia (typically 5-10 seconds). […]"}, "[2]": {"conditions": "humans, mice, and zebrafish; cited from earlier work"}, "[3]": {"test_system": "melanoma tumors of BRAF/p53 zebrafish", "test": "Tumor size by digital calipers in melanoma-bearing BRAF/p53 zebrafish", "assay_type": "in vivo", "method": "Wild-type (WT) fish were inbred AB strain (sjA). p53-/- and transgenic mitfa-BRAFV600E¬ lines were crossed to produce melanoma-bearing fish (referred to as BRAF/p53), using a previously described method. All fish were reared according to standard laboratory procedures. Fish were kept in an indoor environment at a temperature of 28 ± 1° C. with a 14:10-h light:dark circadian cycle. Both female and male fish were used for experiments at random. Experiments were conducted with age-matched animals (i.e., within 2 weeks of age). To assay tumor growth, melanoma dimensions were measured by using digital calipers. Tumor size was approximated as the volume of a half ellipsoid, ⅔ πabc, where a, b, and c represent the radii of tumor length, width, and height respectively.\nVemurafenib was dissolved in DMSO, and vemurafenib solution or DMSO alone (vehicle) was delivered via intraperitoneal injection following a previously described protocol detailed above. Throughout the experiment, each fish was kept in an individual tank to allow for tracking. […]"}, "[4]": {"test_system": "tumor-liver alanine cycle", "test": "[U-13C] glucose isotope tracing / LC/MS metabolomics in drug-treated BRAF/p53 zebrafish (tumor-liver alanine cycling)", "assay_type": "in vivo", "method": "For all isotope tracing experiments, zebrafish were fasted for 24 h to empty the digestive tract prior to labeling. […] During steady-state labeling experiments, zebrafish were allowed to swim freely in facility water containing the corresponding stable isotopes at the aforementioned concentrations, in addition to 2% penicillin/streptomycin (Life Technologies). For isotope tracing via intraperitoneal injection, zebrafish were injected using a previously described method. Briefly, anesthetized fish were quickly dried and weighed. Zebrafish were then placed into the trough of a wet precut sponge, with the abdomen facing up and gills secured in the trough. A 35G beveled needle and NanoFil 10 µL syringe (World Precision Instruments) was carefully inserted midline near the pelvic girdle, and a [U-^13C] glucose treatment solution (0.5 mg/g) was slowly dispensed. After injection, fish were placed in 28° C. facility water and monitored for recovery from anesthesia (typically 5-10 seconds). Throughout the experiment, each fish was kept in an individual tank to allow for tracking.\nTo extract metabolites from serum, samples were diluted 1:15 with methanol:acetonitrile:water (2:2:1) at -20° C., vortexed for 10 s, and incubated at -20° C. for 1 h. Following incubation, metabolite extracts were centrifuged at 20,000 g and 4° C. for 10 min, and the supernatant was transferred into an LC/MS vial for same-day analysis. To extract metabolites from zebrafish tissues, frozen samples were ground in 1.5 mL microcentrifuge tubes with a disposable pellet pestle (Fisherbrand). The pellet pestle was placed in liquid nitrogen prior to sample grinding, and the microcentrifuge tube (containing tissue) was submerged in liquid nitrogen for the entirety of tissue grinding. […] The powderized tissue was mixed with -20° C. methanol:acetonitrile:water (2:2:1) and subjected to two cycles of freezing in liquid nitrogen (1 min), thawing in 25° C. water (10 s), sonication (5 min), and vortexing (30 s). Samples were then incubated at -20° C. for 1 h. […]"}, "[5]": {"test_system": "alanine aminotransferase (ALT)", "test": "[U-13C] BCAA labeling and metabolite pool sizes after ALT inhibition in BRAF/p53 zebrafish", "assay_type": "in vivo", "conditions": "600 µM in water, 10 days, vs vehicle", "protocol": "For all isotope tracing experiments, zebrafish were fasted for 24 h to empty the digestive tract prior to labeling. To determine the [U-^13C] glucose concentration for isotopic steady-state labeling, concentrations between 5 - 20 mM were tested. […] Similarly, concentrations between 1 - 10 mM of [U-^13C] glutamine were tested for steady-state labeling. […] For ^15N-BCAA labeling experiments, 2 mM each [^15N] leucine, [^15N] isoleucine, and [^15N] valine were concurrently supplemented to facility water. For ^13C-BCAA labeling experiments, 4 mM each of [U-^13C] leucine, [U-^13C] isoleucine, and [U-^13C] valine were concurrently supplemented to facility water. During steady-state labeling experiments, zebrafish were allowed to swim freely in facility water containing the corresponding stable isotopes at the aforementioned concentrations, in addition to 2% penicillin/streptomycin (Life Technologies). For isotope tracing via intraperitoneal injection, zebrafish were injected using a previously described method. Briefly, anesthetized fish were quickly dried and weighed. Zebrafish were then placed into the trough of a wet precut sponge, with the abdomen facing up and gills secured in the trough. A 35G beveled needle and NanoFil 10 µL syringe (World Precision Instruments) was carefully inserted midline near the pelvic girdle, and a [U-^13C] glucose treatment solution (0.5 mg/g) was slowly dispensed. After injection, fish were placed in 28° C. facility water and monitored for recovery from anesthesia (typically 5-10 seconds). Throughout the experiment, each fish was kept in an individual tank to allow for tracking.\nTo extract metabolites from serum, samples were diluted 1:15 with methanol:acetonitrile:water (2:2:1) at -20° C., vortexed for 10 s, and incubated at -20° C. for 1 h. Following incubation, metabolite extracts were centrifuged at 20,000 g and 4° C. for 10 min, and the supernatant was transferred into an LC/MS vial for same-day analysis. To extract metabolites from zebrafish tissues, frozen samples were ground in 1.5 mL microcentrifuge tubes with a disposable pellet pestle (Fisherbrand). The pellet pestle was placed in liquid nitrogen prior to sample grinding, and the microcentrifuge tube (containing tissue) was submerged in liquid nitrogen for the entirety of tissue grinding. We note that microcentrifuge tubes were labeled and weighed prior to tissue harvest and then weighed again following tissue grinding. The powderized tissue was mixed with -20° C. methanol:acetonitrile:water (2:2:1) and subjected to two cycles of freezing in liquid nitrogen (1 min), thawing in 25° C. water (10 s), sonication (5 min), and vortexing (30 s). Samples were then incubated at -20° C. for 1 h. For every 1 mg of tissue wet weight, 40 µL of extraction solvent was added. Following protein precipitation, tissue extracts were centrifuged at 20,000 g and 4° C. for 10 min, and the supernatant was transferred into an LC/MS vial for same-day analysis.\nUltra-high performance LC (UHPLC)/MS was performed with a Thermo Scientific Vanquish Horizon UHPLC system interfaced with a Thermo Scientific Orbitrap ID-X Tribrid Mass Spectrometer (Waltham, MA). Hydrophilic interaction liquid chromatography (HILIC) was conducted with a SeQuant ZIC-pHILIC guard column (20 mm × 2.1 mm, 5 µm) connected to a SeQuant ZIC-pHILIC column (100 mm × 2.1 mm, 5 µm; EMD Millipore, Burlington, MA). Chromatographic solvents were adapted from a previously described work. […]"}, "[6]": {"conditions": "50 µM in tank water, 6 days, vs DMSO"}}, "note": "Entries after “also recorded” stand apart in the source; their conditions may differ."}
{"smiles": "CCCS(=O)(=O)Nc1ccc(F)c(C(=O)c2c[nH]c3ncc(-c4ccc(Cl)cc4)cc23)c1F", "note": "[vemurafenib]", "values": [{"measurement": "13C-labeling in metabolites from the circulation, liver, or muscle", "setting": "[1]", "value": "No differences; also recorded: does not lead to off-target metabolic effects"}, {"measurement": "toxicity and tolerability", "setting": "[2]", "value": "minimal toxicity and high tolerability"}, {"measurement": "tumors reduced in size", "setting": "[3]; 100 mg/kg/day i.p., after 10 days", "value": "> 95", "unit": "%"}, {"measurement": "reduction of M3 labeling of alanine in the tumor", "setting": "[4]; 100 mg/kg/day i.p., 4 days, vs vehicle, 10 mM [U-13C] glucose 24 h", "value": "~ 2 fold"}]}
{"smiles": "N[C@@H](CCl)C(=O)O", "note": "[β-chloroalanine, β-chloro-L-alanine]", "values": [{"measurement": "BCAAs in serum (pool size)", "setting": "[5]", "value": "accumulation"}, {"measurement": "BCAAs in tumor (pool size)", "setting": "[5]", "value": "accumulation"}, {"measurement": "contribution that [U-13C] BCAAs made to the TCA cycle in tumors", "setting": "[5]", "value": "significantly reduced"}, {"measurement": "levels of alanine in tumor, serum, and liver", "setting": "[5]", "value": "decreased"}, {"measurement": "levels of circulating glucose", "setting": "[5]", "value": "decreased"}, {"measurement": "reduction in tumor size", "setting": "[3]; β-chloroalanine in water, 10 days", "value": 50, "unit": "%"}]}
{"smiles": "CCN(c1nc(N)c(C(=O)N=C(N)N)nc1Cl)C(C)C", "note": "[EIPA, 5-(N-ethyl-N-isopropyl)amiloride]", "values": [{"measurement": "alanine labeling in the tumor", "setting": "[4]; [6]", "value": "did not affect"}, {"measurement": "hepatic gluconeogenesis (M3 labeling of glucose in the liver and serum)", "setting": "[4]; [6]", "value": "did not affect"}]}
